US12043632B2, “6-heteroaryloxy benzimidazoles and azabenzimidazoles as JAK2 inhibitors” (Ajax Therapeutics, Inc., priority 2020, dated 2024)

What follows are compounds tested against T1, JAK2 (JH1domain-catalytic, Y1007F,Y1008F) kinase (Homo sapiens, UniProt O60674, Y1007F/Y1008F) (assay: JAK2 JH1 Domain Binding Assay). Conditions: qPCR readout.
T1 construct: JAK2 (JH1domain-catalytic, Y1007F,Y1008F) kinase was expressed as N-terminal fusion; made in house; host or cells: transiently transfected HEK293 cells
T1 sequence (O60674 849-1124 Y1007F/Y1008F limits assumed): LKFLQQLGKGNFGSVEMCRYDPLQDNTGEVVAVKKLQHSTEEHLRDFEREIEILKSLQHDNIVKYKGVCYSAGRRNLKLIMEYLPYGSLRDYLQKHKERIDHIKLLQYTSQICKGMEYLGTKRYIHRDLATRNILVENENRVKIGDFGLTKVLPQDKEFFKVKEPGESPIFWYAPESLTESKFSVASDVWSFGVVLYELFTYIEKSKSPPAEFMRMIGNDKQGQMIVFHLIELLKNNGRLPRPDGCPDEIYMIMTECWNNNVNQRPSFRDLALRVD

SMILES | Kd
CN(C)[C@@H]1CCN(Cc2cc(Nc3nc4ncc(Oc5cnn6ccncc56)c(Cl)c4n3C)cc(C(F)(F)F)c2)C1 [Example I-271, (R)-7-chloro-N-(3-((3-(dimethylamino)pyrrolidin-1-yl)methyl)-5-(trifluoromethyl)phenyl)-1-methyl-6-(pyrazolo[1,5-a]pyrazin-3-yloxy)-1H-imidazo[4,5-b]pyridin-2-amine] | < 10 nM
COCCOc1nccn2ncc(Oc3cnc4nc(Nc5cc(C(F)(F)F)n(C6CC7(COC7)C6)n5)n(C)c4c3Cl)c12 [Example I-273, N-(1-(2-oxaspiro[3.3]heptan-6-yl)-5-(trifluoromethyl)-1H-pyrazol-3-yl)-7-chloro-6-((4-(2-methoxyethoxy)pyrazolo[1,5-a]pyrazin-3-yl)oxy)-1-methyl-1H-imidazo[4,5-b]pyridin-2-amine] | 10 to 50 nM
CN(C)c1cc(Nc2nc3ncc(Oc4cnn5ccncc45)c(Cl)c3n2C)cc(C(F)(F)F)n1 [Example I-274, N^4-(7-chloro-1-methyl-6-(pyrazolo[1,5-a]pyrazin-3-yloxy)-1H-imidazo[4,5-b]pyridin-2-yl)-N^2,N^2-dimethyl-6-(trifluoromethyl)pyridine-2,4-diamine] | 10 to 50 nM
CNc1nccn2ncc(Oc3cnc4nc(Nc5cc(OCC6CN(C)C6)cc(C(F)(F)F)c5)n(C)c4c3Cl)c12 [Example I-275, 7-chloro-1-methyl-6-((4-(methylamino)pyrazolo[1,5-a]pyrazin-3-yl)oxy)-N-(3-((1-methylazetidin-3-yl)methoxy)-5-(trifluoromethyl)phenyl)-1H-imidazo[4,5-b]pyridin-2-amine] | 10 to 50 nM
CNc1nccn2ncc(Oc3cnc4nc(Nc5cc(C(F)(F)F)n([C@@H]6CCOC6)n5)n(C)c4c3Cl)c12 [Example I-276, (R)-7-chloro-1-methyl-6-((4-(methylamino)pyrazolo[1,5-a]pyrazin-3-yl)oxy)-N-(1-(tetrahydrofuran-3-yl)-5-(trifluoromethyl)-1H-pyrazol-3-yl)-1H-imidazo[4,5-b]pyridin-2-amine] | 10 to 50 nM
Cn1c(Nc2cc(CN3CCCC3)cc(C(F)(F)F)c2)nc2ncc(Oc3cnn4ccncc34)c(Cl)c21 [Example I-277, 7-chloro-1-methyl-6-(pyrazolo[1,5-a]pyrazin-3-yloxy)-N-(3-(pyrrolidin-1-ylmethyl)-5-(trifluoromethyl)phenyl)-1H-imidazo[4,5-b]pyridin-2-amine] | < 10 nM
CC(=O)N1CC2(CC(n3nc(Nc4nc5ncc(Oc6cnn7ccccc67)c(Cl)c5n4C)cc3C(F)(F)F)C2)C1 [Example I-278, 1-(6-(3-((7-chloro-1-methyl-6-(pyrazolo[1,5-a]pyridin-3-yloxy)-1H-imidazo[4,5-b]pyridin-2-yl)amino)-5-(trifluoromethyl)-1H-pyrazol-1-yl)-2-azaspiro[3.3]heptan-2-yl)ethan-1-one] | < 10 nM
Cn1cc(C(F)(F)F)cc(Nc2nc3ncc(Oc4cnn5ccc(N6CCOCC6)cc45)c(C#N)c3n2C)c1=O [Example I-281, 1-methyl-2-((1-methyl-2-oxo-5-(trifluoromethyl)-1,2-dihydropyridin-3-yl)amino)-6-((5-morpholinopyrazolo[1,5-a]pyridin-3-yl)oxy)-1H-imidazo[4,5-b]pyridine-7-carbonitrile] | < 10 nM
CNc1nccn2ncc(Oc3cnc4nc(Nc5cc(CN6CC[C@@H](N(C)C)C6)cc(C(F)(F)F)c5)n(C)c4c3Cl)c12 [Example I-282, (R)-7-chloro-N-(3-((3-(dimethylamino)pyrrolidin-1-yl)methyl)-5-(trifluoromethyl)phenyl)-1-methyl-6-((4-(methylamino)pyrazolo[1,5-a]pyrazin-3-yl)oxy)-1H-imidazo[4,5-b]pyridin-2-amine] | 10 to 50 nM
CN(C)[C@@H]1CCN(Cc2cc(C(F)(F)F)cc(Nc3nc4ncc(Oc5cnn6ccncc56)c(Cl)c4n3C)c2F)C1 [Example I-283, (R)-7-chloro-N-(3-((3-(dimethylamino)pyrrolidin-1-yl)methyl)-2-fluoro-5-(trifluoromethyl)phenyl)-1-methyl-6-(pyrazolo[1,5-a]pyrazin-3-yloxy)-1H-imidazo[4,5-b]pyridin-2-amine] | 10 to 50 nM
CNc1nccn2ncc(Oc3cnc4nc(Nc5cc(CN6CCCC6)cc(C(F)(F)F)c5)n(C)c4c3Cl)c12 [Example I-284, 7-chloro-1-methyl-6-((4-(methylamino)pyrazolo[1,5-a]pyrazin-3-yl)oxy)-N-(3-(pyrrolidin-1-ylmethyl)-5-(trifluoromethyl)phenyl)-1H-imidazo[4,5-b]pyridin-2-amine] | 10 to 50 nM
CN(C)[C@H]1CCN(Cc2cc(C(F)(F)F)cc(Nc3nc4ncc(Oc5cnn6ccncc56)c(Cl)c4n3C)c2F)C1 [Example I-285, (S)-7-chloro-N-(3-((3-(dimethylamino)pyrrolidin-1-yl)methyl)-2-fluoro-5-(trifluoromethyl)phenyl)-1-methyl-6-(pyrazolo[1,5-a]pyrazin-3-yloxy)-1H-imidazo[4,5-b]pyridin-2-amine] | 10 to 50 nM
CNc1nccn2ncc(Oc3cnc4nc(Nc5cc(CN6CC[C@H](N(C)C)C6)cc(C(F)(F)F)c5)n(C)c4c3Cl)c12 [Example I-286, (S)-7-chloro-N-(3-((3-(dimethylamino)pyrrolidin-1-yl)methyl)-5-(trifluoromethyl)phenyl)-1-methyl-6-((4-(methylamino)pyrazolo[1,5-a]pyrazin-3-yl)oxy)-1H-imidazo[4,5-b]pyridin-2-amine] | 10 to 50 nM
Cc1nc(Nc2nc3ncc(Oc4cnn5ccncc45)c(Cl)c3n2C)nc(C)c1N1CCCC1 [Example I-287, 7-chloro-N-(4,6-dimethyl-5-(pyrrolidin-1-yl)pyrimidin-2-yl)-1-methyl-6-(pyrazolo[1,5-a]pyrazin-3-yloxy)-1H-imidazo[4,5-b]pyridin-2-amine] | 10 to 50 nM
Cn1cc(C(F)(F)F)cc(Nc2nc3ncc(Oc4cnc5[nH]cc(F)c5c4)c(Cl)c3n2C)c1=O [Example I-288, 3-((7-chloro-6-((3-fluoro-1H-pyrrolo[2,3-b]pyridin-5-yl)oxy)-1-methyl-1H-imidazo[4,5-b]pyridin-2-yl)amino)-1-methyl-5-(trifluoromethyl)pyridin-2(1H)-one] | 10 to 50 nM
Cn1cc(C(F)(F)F)cc(Nc2nc3ncc(Oc4cnc5[nH]cc(F)c5c4)c(C#N)c3n2C)c1=O [Example I-289, 6-((3-fluoro-1H-pyrrolo[2,3-b]pyridin-5-yl)oxy)-1-methyl-2-((1-methyl-2-oxo-5-(trifluoromethyl)-1,2-dihydropyridin-3-yl)amino)-1H-imidazo[4,5-b]pyridine-7-carbonitrile] | 10 to 50 nM
Cc1cc2cc(Oc3cnc4nc(Nc5cc(C(F)(F)F)cn(C)c5=O)n(C)c4c3C#N)cnc2[nH]1 [Example I-290, 1-methyl-6-((2-methyl-1H-pyrrolo[2,3-b]pyridin-5-yl)oxy)-2-((1-methyl-2-oxo-5-(trifluoromethyl)-1,2-dihydropyridin-3-yl)amino)-1H-imidazo[4,5-b]pyridine-7-carbonitrile] | 10 to 50 nM
COc1ccc2c(Oc3cnc4nc(Nc5cc(C(F)(F)F)cn(C)c5=O)n(C)c4c3C#N)cnn2c1 [Example I-291, 6-((6-methoxypyrazolo[1,5-a]pyridin-3-yl)oxy)-1-methyl-2-((1-methyl-2-oxo-5-(trifluoromethyl)-1,2-dihydropyridin-3-yl)amino)-1H-imidazo[4,5-b]pyridine-7-carbonitrile] | < 10 nM
Cn1cc(C(F)(F)F)cc(Nc2nc3ncc(Oc4cnn5cc(C#N)ccc45)c(Cl)c3n2C)c1=O [Example I-292, 3-((7-chloro-1-methyl-2-((1-methyl-2-oxo-5-(trifluoromethyl)-1,2-dihydropyridin-3-yl)amino)-1H-imidazo[4,5-b]pyridin-6-yl)oxy)pyrazolo[1,5-a]pyridine-6-carbonitrile] | < 10 nM
Cc1cc2cc(Oc3cnc4nc(Nc5cc(C(F)(F)F)cn(C)c5=O)n(C)c4c3Cl)cnc2[nH]1 [Example I-293, 3-((7-chloro-1-methyl-6-((2-methyl-1H-pyrrolo[2,3-b]pyridin-5-yl)oxy)-1H-imidazo[4,5-b]pyridin-2-yl)amino)-1-methyl-5-(trifluoromethyl)pyridin-2(1H)-one] | 10 to 50 nM
Cn1cc(C(F)(F)F)cc(Nc2nc3ncc(Oc4cnc5[nH]c(C6CC6)cc5c4)c(Cl)c3n2C)c1=O [Example I-294, 3-((7-chloro-6-((2-cyclopropyl-1H-pyrrolo[2,3-b]pyridin-5-yl)oxy)-1-methyl-1H-imidazo[4,5-b]pyridin-2-yl)amino)-1-methyl-5-(trifluoromethyl)pyridin-2(1H)-one] | 10 to 50 nM
Cn1c(Nc2cc(C(F)(F)F)cn([C@H]3C[C@H](O)C3)c2=O)nc2ncc(Oc3cnn4cccc(F)c34)c(Cl)c21 [Example I-295, trans-3-((7-chloro-6-((4-fluoropyrazolo[1,5-a]pyridin-3-yl)oxy)-1-methyl-1H-imidazo[4,5-b]pyridin-2-yl)amino)-1-(3-hydroxycyclobutyl)-5-(trifluoromethyl)pyridin-2(1H)-one] | 10 to 50 nM
Cn1cc(C(F)(F)F)cc(Nc2nc3ncc(Oc4cnc5[nH]c(C6CC6)cc5c4)c(C#N)c3n2C)c1=O [Example I-296, 6-((2-cyclopropyl-1H-pyrrolo[2,3-b]pyridin-5-yl)oxy)-1-methyl-2-((1-methyl-2-oxo-5-(trifluoromethyl)-1,2-dihydropyridin-3-yl)amino)-1H-imidazo[4,5-b]pyridine-7-carbonitrile] | 10 to 50 nM
Cn1c(Nc2cc(C(F)(F)F)cn([C@H]3C[C@H](O)C3)c2=O)nc2ncc(Oc3cnn4cccc(F)c34)c(C#N)c21 [Example I-297, trans-6-((4-fluoropyrazolo[1,5-a]pyridin-3-yl)oxy)-2-((1-(3-hydroxycyclobutyl)-2-oxo-5-(trifluoromethyl)-1,2-dihydropyridin-3-yl)amino)-1-methyl-1H-imidazo[4,5-b]pyridine-7-carbonitrile] | < 10 nM
Cn1c(Nc2ccc(CN3CCCOCC3)c(C(F)(F)F)c2)nc2ncc(Oc3cnn4ccncc34)c(Cl)c21 [Example I-298, N-(4-((1,4-oxazepan-4-yl)methyl)-3-(trifluoromethyl)phenyl)-7-chloro-1-methyl-6-(pyrazolo[1,5-a]pyrazin-3-yloxy)-1H-imidazo[4,5-b]pyridin-2-amine] | < 10 nM
